Measurements as given in patent publication US20250092058A1 (priority 2018, published 2025).
Read-outs that look alike come from different tables or passages of the source.

Experiments:
HCT116 cells = experiment: ROS production, DCFH-DA probe; format: cell-based, human; details: 5-100 nM vs vehicle control
Text: Under the influence of pro-apoptotic signals, the elevation of reactive oxygen species (ROS) may serve as a secondary messenger to upregulate the expression of pro-apoptotic proteins, thereby inducing cellular apoptosis.

HepG2 = format: cell-based, human
A549 = format: cell-based, human
HeLa = format: cell-based, human
HCT116 [1] = format: cell-based, human
[2] = system: HepG2, A549, HeLa, HCT116; details: four cell lines, in words
A2780CP70-GFPcODC cells = experiment: GFPcODC drug-resistant cell tracking, A2780CP; format: cell-based, human; details: 10 μM, 72 h
Text: (§1) Generation of A2780-GFPcODC, A2780CP-GFPcODC and PANC1GFPcODC cells and fluorescence microscopy to detect stem-like and drug resistant green cells. The retroviral expression vector pQCXIN-ZsGreen-cODC (ornithine decarboxylase), containing a green fluorescence marker, was kindly provided by Dr. Frank Pajonk (Vlashi E, et al., In vivo imaging, tracking, and targeting of cancer stem cells. J Natl Cancer Inst. 2009; 101: 350-9). The retroviral particles collected from packaging cells that transfected with the above vector were infected into A2780, A2780CP and PANC1 cells, respectively. The transfected cell pool was used for experiments. The transfected cells were treated with and without cisplatin or FL118 alone or in combination for defined times. Cell images were acquired digitally using the Olympus IX73 Inverted Score s (Olympus). Percentages of living cells were obtained from the average of the total cells counted from 10 microscopic fields.
To test this, we used a novel approach developed in Dr. Pajonk's lab for the live tracking of drug resistant cells (Vlashi E, et al., In vivo imaging, tracking, and targeting of cancer stem cells. J Natl Cancer Inst. 2009; 101: 350-9). This approach takes advantage of reduced 26S proteasome activity of drug resistant cells. […]

PANC1-GFPcODC cells = experiment: Trypan blue exclusion, PANC1-GFPcODC cells; format: cell-based, human; details: 4-day treatment
Text: as §1, with “The transfected cells were treated with and without cisplatin or FL118 alone or in combination for defined times.” left out
Next, we applied the same system to generate pancreatic cancer PANC1-GFPcODC cells.

Top1 = Top1 (Homo sapiens, UniProt P11387); format: biochemical
DDX5-blocked Top1 = DDX5-blocked Top1 (Homo sapiens, UniProt P17844); format: biochemical; details: 0.05 μM; DDX5 100 nM; Top1 1 IU
Description: Experimental condition: Top1 was used for 1 IU; DDX5 was used in 100 nM; and 1 μg supercoiled pRB322 DNA was used.

HCT116 [3] = experiment: MTT assay HCT116; format: cell-based, human
Description: (§2) MTT assays. […] Each experiment was performed at least in triplicate.

T24 = experiment: MTT assay T24; format: cell-based; details: Table 5 lower part; T24 bladder cancer
Description: (§3) MTT assays. […] Viable cells (2500 cells per well) were plated in each well in 96-well plates. After an overnight incubation, cells were treated with and without relevant drugs alone and in combination, respectively, at various concentrations and incubated for 72 hours. MTT, a colorimetric substrate, was added to a final concentration of 0.4 mg/ml to each well. Cells in 96-well plates were further incubated in a 5% CO2 incubator at 37° C. for 4 hours, and then the medium was aspirated. The MTT metabolic product formazan was solubilized by adding 200 ul of DMSO to each well. Absorbance in the relevant wells was measured at 570 nm using an Ultra Microplate Reader (Bio-Tek Instruments). Each experiment was performed at least in triplicate. IC50/EC50 values were calculated from a series of drug dose ranges for each analyzed compound, using GraphPad Prism 6 (GraphPad Software, Inc., La Jolla, CA).
(§4) The inhibition of cell growth and viability in various cancer cell types were tested using MTT assay for references.

RT4 = experiment: MTT assay RT4; format: cell-based; details: Table 5 lower part; RT4 bladder cancer
Description: as §3, §4

H1376 = system: H1376
Description: as §3, §4

UMUC-3 = system: UMUC-3
Description: as §3, §4

UOK151 = system: UOK151
Description: as §3, §4

UOK262 = system: UOK262
Description: as §3, §4

HT-3 = experiment: MTT assay HT-3; format: cell-based, human; details: Table 7; HT-3
Description: as §3, §4

Y79 = experiment: MTT assay Y79; format: cell-based; details: Table 7
Description: as §2

Wer 127 = experiment: MTT assay Wer 127; format: cell-based; details: Table 7
Description: as §2

Chain of Top1 (P11387 whole entry, species assumed): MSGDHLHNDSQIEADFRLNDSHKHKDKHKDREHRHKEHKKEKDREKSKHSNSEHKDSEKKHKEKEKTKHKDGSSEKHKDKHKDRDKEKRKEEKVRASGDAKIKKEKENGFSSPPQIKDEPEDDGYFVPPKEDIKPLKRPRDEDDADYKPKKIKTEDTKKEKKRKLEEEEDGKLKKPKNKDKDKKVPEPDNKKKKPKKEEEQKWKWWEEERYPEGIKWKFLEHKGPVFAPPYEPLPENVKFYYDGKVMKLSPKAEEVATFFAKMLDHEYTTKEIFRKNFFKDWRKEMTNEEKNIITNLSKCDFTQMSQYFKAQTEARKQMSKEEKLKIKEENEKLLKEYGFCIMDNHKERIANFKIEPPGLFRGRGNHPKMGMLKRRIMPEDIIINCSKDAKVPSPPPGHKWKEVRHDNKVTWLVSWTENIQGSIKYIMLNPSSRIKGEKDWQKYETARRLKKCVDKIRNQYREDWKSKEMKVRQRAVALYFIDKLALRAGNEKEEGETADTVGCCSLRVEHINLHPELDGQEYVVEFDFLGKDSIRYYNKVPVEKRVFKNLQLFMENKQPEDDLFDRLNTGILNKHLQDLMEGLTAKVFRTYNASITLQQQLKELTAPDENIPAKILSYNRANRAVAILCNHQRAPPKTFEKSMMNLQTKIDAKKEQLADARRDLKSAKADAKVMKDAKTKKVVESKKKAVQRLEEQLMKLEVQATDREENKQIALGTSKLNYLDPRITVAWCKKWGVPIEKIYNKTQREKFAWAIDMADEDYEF
Chain of DDX5-blocked Top1 (P17844 whole entry): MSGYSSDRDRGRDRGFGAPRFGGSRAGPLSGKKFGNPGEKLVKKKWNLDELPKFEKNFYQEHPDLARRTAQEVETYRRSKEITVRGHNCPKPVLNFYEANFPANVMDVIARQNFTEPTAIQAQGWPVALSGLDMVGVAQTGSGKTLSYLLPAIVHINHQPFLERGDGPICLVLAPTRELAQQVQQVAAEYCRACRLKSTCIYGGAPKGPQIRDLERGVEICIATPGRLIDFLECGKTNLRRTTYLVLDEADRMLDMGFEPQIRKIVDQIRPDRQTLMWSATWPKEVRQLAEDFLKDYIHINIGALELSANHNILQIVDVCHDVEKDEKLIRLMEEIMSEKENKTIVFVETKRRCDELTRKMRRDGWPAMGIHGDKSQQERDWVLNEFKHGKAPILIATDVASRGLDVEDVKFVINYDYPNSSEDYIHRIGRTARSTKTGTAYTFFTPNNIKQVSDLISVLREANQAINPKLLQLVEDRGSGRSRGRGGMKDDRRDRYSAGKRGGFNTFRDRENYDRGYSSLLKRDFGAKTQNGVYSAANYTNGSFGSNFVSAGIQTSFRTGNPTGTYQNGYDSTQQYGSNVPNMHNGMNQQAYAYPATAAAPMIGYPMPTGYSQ

For CC[C@@]1(O)C(=O)OCc2c1cc1n(c2=O)Cc2c-1nc1cc3c(cc1c2-c1ccc(F)c(OC)c1)OCO3 [Compound 7h], the ROS production (HCT116 cells) was “significantly increased”.
CC[C@@]1(O)C(=O)OCc2c1cc1n(c2=O)Cc2c-1nc1cc3c(cc1c2-c1ccc(F)cc1)OCO3 [Compound 7b] was tested, and the IC50 (HepG2) was 46.3 ± 5.4 nM, the IC50 (A549) was 19.8 ± 2.9 nM and the IC50 (HeLa) was 11.1 ± 6.7 nM. For the same molecule, the IC50 (HCT116 [1]) was 32.7 ± 3.3 nM and the “cytotoxic / anti-proliferation ability” value [2] was “good anti-proliferation ability in all four cell lines”.
In the case of N.N.[Cl][Pt][Cl] [cisplatin], the “total cell population killed” value (A2780CP70-GFPcODC cells) is reported as 90%, the “GFP-negative (drug sensitive) PANC1 cells killed” value (PANC1-GFPcODC cells; 50 μM) is reported as 92% and the cell death (PANC1-GFPcODC cells; 20 μM cisplatin, 10 nM FL118, or both) is reported as roughly 18%.
For CCc1c2c(nc3ccc(O)cc13)-c1cc3c(c(=O)n1C2)COC(=O)[C@]3(O)CC [SN38, reference compound], the IC50 (HepG2; Table 13, MTT, HepG2 liver cancer) was 268.4 ± 0.6 nM, the IC50 (A549; Table 13, MTT, A549 lung cancer) was 475 ± 9 nM and the IC50 (HeLa; Table 13, MTT, HeLa cervical cancer) was 234 ± 5.2 nM. The IC50 (HCT116 [1]; Table 13, MTT, HCT116 colorectal cancer) was 366.9 ± 3.3 nM, the “concentrations blocking Top1 nicking SC DNA activity” value (Top1) was “could only be blocked by 5 and 50 μM” and the “unblocking of DDX5-blocked Top1 activity” value (DDX5-blocked Top1) was “cannot”. The IC50/EC50 (HCT116 [3]; Table 7) was 619.8 nM, the IC50/EC50 (HCT116 [3]; Table 8) was 619.8 nM and the IC50/EC50 (T24) was 2.32 nM. For the same molecule, the IC50/EC50 (RT4) was 17.6 nM, the IC50/EC50 (H1376; Table 5 lower part, H1376 bladder cancer) was greater than 500 nM and the IC50/EC50 (H1376; Table 8, H1376) was greater than 500 nM. The IC50/EC50 (UMUC-3; Table 5 lower part, UMUC-3 bladder cancer) was 8.2 nM, the IC50/EC50 (UMUC-3; Table 8, UMUC-3) was 8.2 nM and the IC50/EC50 (UOK151; Table 5 lower part, UOK151 kidney cancer) was greater than 500 nM. The IC50/EC50 (UOK151; Table 8, UOK151) was greater than 500 nM, the IC50/EC50 (UOK151; Table 10, UOK151) was greater than 500 nM and the IC50/EC50 (UOK262; Table 5 lower part, UOK262 kidney cancer) was 33.8 nM. For the same molecule, the IC50/EC50 (UOK262; Table 8, UOK262) was 33.8 nM, the IC50/EC50 (UOK262; Table 10, UOK262) was 33.8 nM and the IC50/EC50 (HT-3) was 18 nM. For the same molecule, the IC50/EC50 (Y79) was 5.25 nM and the IC50/EC50 (Wer 127) was 6.85 nM.
